≈ marks a conversion by molar mass, not a printed value. Read-outs that look alike come from different tables or passages of the source.
What was measured:
[1] = reported in Antibiotiki 22: 963-967 at 967, 1977; cited from earlier work
[2] = system: Streptomyces albaduncus strain C38291; assay: growth inhibition of producing strain by antibiotics; format: cell-based
Excerpt: The growth of strain C38291 is inhibited by streptomycin or tetracycline, but not by benzylpenicillin, ampicillin or erythromycin. The sodium chloride tolerance is seen at 8% or less, but not at 10% or more. Melanin is not produced from L-3,4-dihydroxy phenylalanine (L-DOPA). Among eleven diagnostic sugars described in Bergey's Manual, 8th ed. (1974), only raffinose is not utilized by strain C38291. The physiological characteristics and utilization of carbohydrates are shown in Tables II and III, respectively.

[3] = system: Enterobacter cloacae; assay: antibacterial activity, serial two-fold agar dilution method; format: cell-based; details: Strain No. 9659
Description: (§1) The antibacterial activities of albacarcin V and M were determined by a serial two-fold agar dilution method.

[4] = system: Escherichia coli; assay: as above; format: cell-based
Description: as §1

[5] = system: Klebsiella pneumoniae; assay: as above; format: cell-based; details: Strain No. 15130
Description: as §1

[6] = system: Proteus mirabilis; assay: as above; format: cell-based; details: Strain No. 9900
Description: as §1

[7] = system: Proteus vulgaris; assay: as above; format: cell-based; details: Strain No. 21559
Description: as §1

[8] = system: Pseudomonas aeruginosa; assay: as above; format: cell-based; details: Strain No. 9843A
Description: as §1

[9] = system: Serratia marcescens; assay: as above; format: cell-based; details: Strain No. 20019
Description: as §1

[10] = system: Staphylococcus aureus; assay: as above; format: cell-based; details: for MIC: Staphylococcus aureus, read-out: Minimum Inhibitory Concentration
Description: as §1

[11] = system: Streptococcus pneumoniae; assay: as above; format: cell-based; details: Strain No. 9585
Description: as §1

[12] = system: Streptococcus pyogenes; assay: as above; format: cell-based; details: Strain No. 9604
Description: as §1

[13] = system: P388 leukemia; format: in vivo, CDF1 female mice; details: for Effect MST % T/C / MST (median survival time): 3X, Days 1,4,7; for host survival in the P388 leukemia screening test (in words): mouse, in vivo
Excerpt: Details of the methods used in this procedure have been described in Cancer Chemother. Rep. 3: 1-87 (Part 3), 1972.
Host CDF1 .female. mice
Treatment 3X, Days 1,4,7
Evaluation MST = median survival time
Effect % T/C = (MST treated/MST control) × 100
Criteria % T/C ≥ 125 considered significant antitumor activity.

[14] = system: gram-positive bacteria; assay: antibacterial activity, agar dilution, gram-positive summary; format: cell-based; details: summary of Table IV
Description: as §1

[15] = system: gram-negative bacteria; assay: antibacterial activity, agar dilution, gram-negative summary; format: cell-based; details: at the highest dose tested
Description: as §1

virenomycin
antitumor activity (in words) [1]: comparatively low antitumor activity and narrow spectrum

CC1(C)S[C@@H]2[C@H](NC(=O)[C@H](N)c3ccccc3)C(=O)N2[C@H]1C(=O)O [ampicillin]
growth of strain C38291 inhibited or not [2]: not

COc1cc2c(oc(=O)c3cc(C)cc(OC)c32)c2c(C3OC(C)C(O)C(C)(O)C3O)ccc(O)c12 (stereo not drawn) [Albacarcin M, albacarcin M]
MIC ([3]; Enterobacter cloacae, read-out: Minimum Inhibitory Concentration): > 50 µg/mL
MIC ([4]; Escherichia coli, Strain No. 15119, read-out: Minimum Inhibitory Concentration): > 50 µg/mL
Minimum Inhibitory Concentration ([4]; Strain No. 20341-1): > 50 µg/mL
MIC ([5]; Klebsiella pneumoniae, read-out: Minimum Inhibitory Concentration): > 50 µg/mL
MIC ([6]; Proteus mirabilis, read-out: Minimum Inhibitory Concentration): > 50 µg/mL
MIC ([7]; Proteus vulgaris, read-out: Minimum Inhibitory Concentration): > 50 µg/mL
MIC ([8]; Pseudomonas aeruginosa, read-out: Minimum Inhibitory Concentration): > 50 µg/mL
MIC ([9]; Serratia marcescens, read-out: Minimum Inhibitory Concentration): > 50 µg/mL
MIC ([10]; Strain No. 9497): 0.8 µg/mL (≈ 1.61 µM)
MIC ([10]; Strain No. 9537): 3.2 µg/mL (≈ 6.44 µM)
MIC ([10]; Strain No. 9606): 3.2 µg/mL (≈ 6.44 µM)
MIC ([10]; Strain No. 20688): 1.6 µg/mL (≈ 3.22 µM)
MIC ([11]; Streptococcus pneumoniae, read-out: Minimum Inhibitory Concentration): 0.4 µg/mL (≈ 0.806 µM)
MIC ([12]; Streptococcus pyogenes, read-out: Minimum Inhibitory Concentration): 1.6 µg/mL (≈ 3.22 µM)
Effect MST % T/C ([13]; 8 mg/kg/inj): 113 % T/C
MST (median survival time) ([13]; 8 mg/kg/inj): 9.0 days
Effect MST % T/C ([13]; 16 mg/kg/inj): 119 % T/C
MST (median survival time) ([13]; 16 mg/kg/inj): 9.5 days
Effect MST % T/C ([13]; 32 mg/kg/inj): 150 % T/C
MST (median survival time) ([13]; 32 mg/kg/inj): 12.0 days
Effect MST % T/C ([13]; 64 mg/kg/inj): 150 % T/C
MST (median survival time) ([13]; 64 mg/kg/inj): 12.0 days
Effect MST % T/C ([13]; 128 mg/kg/inj): 175 % T/C
MST (median survival time) ([13]; 128 mg/kg/inj): 14.0 days
Effect MST % T/C ([13]; 256 mg/kg/inj): 200 % T/C
MST (median survival time) ([13]; 256 mg/kg/inj): 16.0 days
host survival in the P388 leukemia screening test (in words) [13]: significantly prolong host survival
gram-positive antibacterial activity (in words) [14]: moderate gram-positive antibacterial activity
gram-negative activity (in words) [15]: Little or no gram-negative activity

C=Cc1cc(OC)c2c(c1)c(=O)oc1c2cc(OC)c2c(O)ccc(C3OC(C)C(O)C(C)(O)C3O)c21 (stereo not drawn) [Albacarcin V, albacarcin V]
Minimum Inhibitory Concentration [3]: > 50 µg/mL
Minimum Inhibitory Concentration ([4]; Strain No. 15119): > 50 µg/mL
Minimum Inhibitory Concentration ([4]; Strain No. 20341-1): > 50 µg/mL
Minimum Inhibitory Concentration [5]: > 50 µg/mL
Minimum Inhibitory Concentration [6]: > 50 µg/mL
Minimum Inhibitory Concentration [7]: 3.2 µg/mL
Minimum Inhibitory Concentration [8]: > 50 µg/mL
Minimum Inhibitory Concentration [9]: > 50 µg/mL
Minimum Inhibitory Concentration ([10]; Strain No. 9497): 0.0125 µg/mL
Minimum Inhibitory Concentration ([10]; Strain No. 9537): 0.0125 µg/mL
Minimum Inhibitory Concentration ([10]; Strain No. 9606): 0.4 µg/mL
Minimum Inhibitory Concentration ([10]; Strain No. 20688): 0.1 µg/mL
Minimum Inhibitory Concentration [11]: 0.025 µg/mL
Minimum Inhibitory Concentration [12]: 0.05 µg/mL
Effect MST % T/C ([13]; 8 mg/kg/inj): 113 % T/C
MST (median survival time) ([13]; 8 mg/kg/inj): 9.0 days
Effect MST % T/C ([13]; 16 mg/kg/inj): 131 % T/C
MST (median survival time) ([13]; 16 mg/kg/inj): 10.5 days
Effect MST % T/C ([13]; 32 mg/kg/inj): 150 % T/C
MST (median survival time) ([13]; 32 mg/kg/inj): 12.0 days
Effect MST % T/C ([13]; 64 mg/kg/inj): 194 % T/C
MST (median survival time) ([13]; 64 mg/kg/inj): 15.5 days
Effect MST % T/C ([13]; 128 mg/kg/inj): 200 % T/C
MST (median survival time) ([13]; 128 mg/kg/inj): 16.0 days
Effect MST % T/C ([13]; 256 mg/kg/inj): 100 % T/C
MST (median survival time) ([13]; 256 mg/kg/inj): 8.0 days
potency relative to albacarcin M in P388 test ([13]; comparing optimum doses (maximum T/C) and minimum effective dose (lowest dose giving T/C>125)): twice as potent as albacarcin M
host survival in the P388 leukemia screening test (in words) [13]: significantly prolong host survival
antibacterial potency relative to albacarcin M [14]: more potent than albacarcin M
gram-positive antibacterial activity (in words) [14]: moderate gram-positive antibacterial activity
gram-negative activity (in words) [15]: Little or no gram-negative activity

CN(C)[C@@H]1C(=O)C(C(N)=O)=C(O)[C@@]2(O)C(=O)C3=C(O)c4c(O)cccc4[C@@](C)(O)[C@H]3C[C@@H]12 [tetracycline]
growth of strain C38291 inhibited or not [2]: inhibited

[H]/N=C(/N)N[C@H]1[C@H](O)[C@@H](O)[C@H](O[C@@H]2O[C@@H](C)[C@](O)(C=O)[C@H]2O[C@@H]2O[C@@H](CO)[C@H](O)[C@@H](O)[C@@H]2NC)[C@@H](N/C(N)=N\[H])[C@@H]1O [streptomycin]
growth of strain C38291 inhibited or not [2]: inhibited

CC1(C)S[C@@H]2[C@H](NC(=O)Cc3ccccc3)C(=O)N2[C@H]1C(=O)O [benzylpenicillin]
growth of strain C38291 inhibited or not [2]: not

CC[C@H]1OC(=O)[C@H](C)[C@@H](O[C@H]2C[C@@](C)(OC)[C@@H](O)[C@H](C)O2)[C@H](C)[C@@H](O[C@@H]2O[C@H](C)C[C@H](N(C)C)[C@H]2O)[C@](C)(O)C[C@@H](C)C(=O)[C@H](C)[C@@H](O)[C@]1(C)O [erythromycin]
growth of strain C38291 inhibited or not [2]: not

— patent publication US4461831A, “Antitumor agents albacarcins V and M” (Bristol-Myers Company, priority 1982, dated 1984)
